According to patent US20260159536A1, “AKR1C3-ACTIVATED DNA ALKYLATING AGENT, AND MEDICAL APPLICATION THEREOF” (ASCENTAWITS PHARMACEUTICALS, LTD., priority 2021, published 2026):

How the values were obtained:
[1] = system: human lung cancer NCI-H460 cells; experiment: In vivo pharmacodynamics, NCI-H460 subcutaneous xenograft model; parameters: species or system BALB/c nude mice; details: for Tumor volume: 100 mg/kg i.p.
[2] = system: HuPrime model PA1222 human pancreatic cancer; experiment: In vivo pharmacodynamics, pancreatic cancer PA1222 PDX model; details: for Tumor volume: 120 mg/kg i.p.
Protocol: The test was divided into groups of test drug Gemcitabine 120 mg/kg group, test drug Compound A 10 mg/kg and 7.5% anhydrous ethanol+7.5% polyoxyethylene (35) castor oil+85% glucose injection DSW (pH 7.4) vehicle control group, a total of 3 groups, with 5 mice per group. […] Test drug Gemcitabine (Gemcitabine) 120 mg/kg group was administered intraperitoneally, once a week for three consecutive weeks.

[3] = target: T1, P-gp (Homo sapiens, UniProt P08183); experiment: P-gp substrate evaluation, MDCKII-MDR1 penetration test with or without Verapamil; assay type: in vitro ADME; details: Verapamil 0 μM
T1 construct: expressed in transfected cells; host or cells: MDCKII-MDR1 cells
Protocol: The conditions of the incubator were set as 37° C., 5% CO2, and 95% of the relative humidity.
After that, the MDCKII-MDR1 cells can be used for the penetration test.
(1) MDCKII-MDR1 transwell culture plate was taken out from the incubator.
(6) The upper and lower transportations were pooled and then incubated at 37° C. for 2 h.
After the sample tubes were vortexed for 10 min, and centrifuged at 3220 g for 30 min. […] Each sample was adopted to the three parallel incubation.
Efflux Ratio was calculated by the following formula: […]
Recovery was calculated by the following formula: […]

[4] = system: HuPrime model LU0884 human lung cancer; experiment: In vivo pharmacodynamics, lung cancer LU0884 PDX model; parameters: species or system BALB/c nude mice; details: for Size of tumor volume: Group 2, Paclitaxel 20 mg/kg
[5] = system: HuPrime model LU2505 human lung cancer; experiment: In vivo pharmacodynamics, lung cancer LU2505 PDX model; parameters: species or system BALB/c nude mice; details: for Tumor volume: 20 mg/kg i.p.
[6] = system: human lung cancer NCI-H460-Luc2 cells (intracranial); experiment: In vivo pharmacodynamics, NCI-H460-Luc2 intracranial inoculation CDX model; parameters: species or system BALB/c nude mice; details: 20 mg/kg, i.p. QWx3; Day 11
Protocol: The experiment was divided into groups of test drug Paclitaxel 20 mg/kg group, Compound A 2 mg/kg, 4 mg/kg and 8 mg/kg groups and 10% ethanol+10% polyoxyethylene castor oil+80% glucose injection DSW (pH 7.42) vehicle control group (Vehicle group), with 6 mice per group. […] The positive drug Paclitaxel 20 mg/kg group was administered by intraperitoneal injection and administered once a week for 3 weeks.
The pharmacodynamic analysis of each group in the human NCI-H460-luc intracranial inoculation model was performed based on the measured bioluminescence values on day 11 after administration, and the results were shown in Table 14.

[7] = Blood-brain barrier assay of Compound AST-2870 (plasma and brain concentration, PK); assay type: in vivo, CD-1 mice
Protocol: Three CD-1 mice were administered 10 mg/kg of test Compound AST-2870 by intraperitoneal injection at each time point. Blood and brain tissues were taken at 5 min, 15 min, 30 min, 1 h, 1.5 h, and 2 h after administration, and the concentration of the test substance in the samples was determined by LC/MS method. The corresponding results of the concentrations of Compound AST-2870 in blood and brain tissue versus time were made into a curve graph, as shown in FIG. 37. The corresponding test results of the ratio of the concentration of the Compound AST-2870 in brain tissue and blood versus time were made into a curve graph, as shown in FIG. 38.

[8] = Chiral stability under long-term and accelerated storage conditions; assay type: physicochemical
Protocol: Isomer stability under long-term and accelerated conditions was studied.
Compound A and isomers A-P1 and A-P2 were investigated for traits and isomeric stability at −20±5° C., 5° C.±3° C., 25° C.±2° C. (60%±5% RH) and 40° C.±2° C.

[9] = Paclitaxel 20 mg/kg, Q4Dx4, i.p., Day 28
[10] = 20 mg/kg i.p. every four days x4, Day 28
[11] = brain tissues, 10 mg/kg intraperitoneal injection, Mean
[12] = plasma, 10 mg/kg intraperitoneal injection, Mean
[13] = 25° C. ± 2° C./60% ± 5% RH, 1 month
[14] = 25° C. ± 2° C./60% ± 5% RH, 3 months
[15] = 40° C. ± 2° C./75% ± 5% RH, 1 month

T1 sequence (P08183 whole entry): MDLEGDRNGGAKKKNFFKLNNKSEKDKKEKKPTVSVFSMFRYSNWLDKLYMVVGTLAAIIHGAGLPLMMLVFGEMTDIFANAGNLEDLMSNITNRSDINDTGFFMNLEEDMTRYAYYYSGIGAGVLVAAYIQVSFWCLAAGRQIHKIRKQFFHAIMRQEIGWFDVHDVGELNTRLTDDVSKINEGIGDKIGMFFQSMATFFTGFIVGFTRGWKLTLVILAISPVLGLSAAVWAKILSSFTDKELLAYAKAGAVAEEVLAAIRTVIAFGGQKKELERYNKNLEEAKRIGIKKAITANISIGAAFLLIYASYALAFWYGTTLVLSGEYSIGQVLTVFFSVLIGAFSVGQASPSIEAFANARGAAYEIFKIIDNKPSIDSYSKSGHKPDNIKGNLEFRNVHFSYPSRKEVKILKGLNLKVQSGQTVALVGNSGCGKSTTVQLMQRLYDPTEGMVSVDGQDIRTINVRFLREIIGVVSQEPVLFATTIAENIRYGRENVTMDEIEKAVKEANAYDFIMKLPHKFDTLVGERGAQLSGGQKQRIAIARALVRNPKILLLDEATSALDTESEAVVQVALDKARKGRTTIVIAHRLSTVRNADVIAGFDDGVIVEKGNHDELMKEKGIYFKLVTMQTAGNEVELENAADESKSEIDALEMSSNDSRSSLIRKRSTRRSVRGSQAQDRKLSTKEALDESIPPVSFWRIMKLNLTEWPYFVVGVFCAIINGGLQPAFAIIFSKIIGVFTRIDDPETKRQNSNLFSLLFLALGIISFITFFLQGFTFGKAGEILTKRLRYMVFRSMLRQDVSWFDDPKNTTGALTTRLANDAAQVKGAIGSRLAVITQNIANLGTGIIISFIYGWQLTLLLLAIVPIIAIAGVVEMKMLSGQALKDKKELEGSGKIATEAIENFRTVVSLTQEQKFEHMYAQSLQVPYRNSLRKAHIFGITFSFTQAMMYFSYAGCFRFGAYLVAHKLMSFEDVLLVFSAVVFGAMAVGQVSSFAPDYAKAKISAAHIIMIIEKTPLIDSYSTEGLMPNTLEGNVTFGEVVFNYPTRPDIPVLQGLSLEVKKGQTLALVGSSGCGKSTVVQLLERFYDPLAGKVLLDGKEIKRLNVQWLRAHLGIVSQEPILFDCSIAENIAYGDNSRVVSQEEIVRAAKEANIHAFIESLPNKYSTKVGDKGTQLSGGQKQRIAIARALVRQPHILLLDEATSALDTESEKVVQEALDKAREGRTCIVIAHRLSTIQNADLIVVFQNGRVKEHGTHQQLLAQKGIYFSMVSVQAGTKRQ

N.N.O=C([O-])C1(C(=O)[O-])CCC1.[Pt+2] [Carboplatin, reference compound]
Tumor volume ([1]; Day 7): 145.46 mm^3
Tumor volume ([1]; Day 10): 262.15 mm^3
Tumor volume ([1]; Day 14): 409.97 mm^3
Tumor volume ([1]; Day 17): 529.44 mm^3
Tumor volume ([1]; Day 21): 761.56 mm^3
Tumor volume ([1]; Day 24): 960.42 mm^3
Tumor volume ([1]; Day 28): 1073.28 mm^3
Tumor volume ([1]; Day 31): 1230.93 mm^3
Tumor volume ([1]; Day 35): 1577.99 mm^3
Relative tumor volume (x ± S) ([1]; 100 mg/kg, QWx3, i.p., Day 31): 8.58 ± 1.16
T/C (%) ([1]; 100 mg/kg, QWx3, i.p., Day 31): 64.81%
TGI (%) ([1]; 100 mg/kg, QWx3, i.p., Day 31): 35.19%
Tumor volume (x ± S) ([1]; 100 mg/kg, QWx3, i.p., Day 31, in mm³ (unit assumed)): 1230.93 ± 258.17

Nc1ccn([C@@H]2O[C@H](CO)[C@@H](O)C2(F)F)c(=O)n1 [Gemcitabine, reference compound]
Tumor volume ([2]; Day 0): 111.91 mm^3
Tumor volume ([2]; Day 3): 136.17 mm^3
Tumor volume ([2]; Day 7): 153.75 mm^3
Tumor volume ([2]; Day 10): 157.55 mm^3
Tumor volume ([2]; Day 14): 147.44 mm^3
Tumor volume ([2]; Day 17): 136.71 mm^3
Tumor volume ([2]; Day 21): 138.01 mm^3
Tumor volume ([2]; Day 24): 153.69 mm^3
Tumor volume ([2]; Day 28): 166.11 mm^3
Relative tumor volume (x ± S) ([2]; 120 mg/kg, QWx3, i.p., Day 28): 1.49 ± 0.19
T/C (%) ([2]; 120 mg/kg, QWx3, i.p., Day 28): 42.83%
TGI (%) ([2]; 120 mg/kg, QWx3, i.p., Day 28): 57.17%
Tumor volume (x ± S) ([2]; 120 mg/kg, QWx3, i.p., Day 28): 166.11 ± 24.40

COc1cc2nc(N3CCN(C(=O)c4ccco4)CC3)nc(N)c2cc1OC [Prazosin]
Efflux Ratio [3]: 2.90

CC(=O)O[C@H]1C(=O)[C@@]2(C)[C@H]([C@H](OC(=O)c3ccccc3)[C@]3(O)C[C@H](OC(=O)[C@H](O)[C@@H](NC(=O)c4ccccc4)c4ccccc4)C(C)=C1C3(C)C)[C@]1(OC(C)=O)CO[C@@H]1C[C@@H]2O [Paclitaxel, reference compound]
Size of tumor volume ([4]; Day 0): 110.11 mm^3
Size of tumor volume ([4]; Day 4): 157.57 mm^3
Size of tumor volume ([4]; Day 7): 229.87 mm^3
Size of tumor volume ([4]; Day 11): 250.46 mm^3
Size of tumor volume ([4]; Day 14): 292.52 mm^3
Size of tumor volume ([4]; Day 18): 381.53 mm^3
Size of tumor volume ([4]; Day 21): 402.62 mm^3
Size of tumor volume ([4]; Day 25): 492.50 mm^3
Size of tumor volume ([4]; Day 28): 528.88 mm^3
T/C (%) [4, 9]: 78.79%
TGI (%) [4, 9]: 21.21%
Relative tumor volume (x ± S) ([4]; Paclitaxel 20 mg/kg, Q4Dx4, i.p., Day 28, mean ± standard error): 4.72 ± 1.26
Tumor volume (x ± S) ([4]; Paclitaxel 20 mg/kg, Q4Dx4, i.p., Day 28, mean ± standard error, in mm³ (unit assumed)): 528.88 ± 147.69
tumor inhibitory effect ([4]; Paclitaxel 20 mg/kg, Compound A 2.5, 5, 10 mg/kg): weak tumor inhibitory effect
Relative tumor volume (x ± S) [5, 10]: 2.29 ± 1.37
T/C (%) [5, 10]: 21.40%
TGI (%) [5, 10]: 78.60%
Tumor volume (x ± S) ([5]; 20 mg/kg i.p. every four days x4, Day 28, in mm³ (unit assumed)): 250.47 ± 157.81
Tumor volume ([5]; Day 0): 103.12 mm^3
Tumor volume ([5]; Day 4): 133.63 mm^3
Tumor volume ([5]; Day 7): 133.14 mm^3
Tumor volume ([5]; Day 11): 132.14 mm^3
Tumor volume ([5]; Day 14): 164.42 mm^3
Tumor volume ([5]; Day 18): 207.89 mm^3
Tumor volume ([5]; Day 21): 238.63 mm^3
Tumor volume ([5]; Day 25): 231.63 mm^3
Tumor volume ([5]; Day 28): 250.47 mm^3
Bioluminescence Value (Day 11) [6]: 4184.52 ± 1679.77 ×10^5 photon/second
T/C (%) [6]: 130.82%
TGI (%) [6]: −62.45%

CC(OP(=O)(N1CC1)N1CC1)c1ccc([N+](=O)[O-])c(Oc2cccc(C(=O)N(C)C)c2)c1 (centres unmarked) [AST-2870]
concentration in brain ([7]; 10 mg/kg i.p., after 30 minutes): lower than the lower limit of quantitation
blood-brain barrier penetration ([7]; 10 mg/kg intraperitoneal injection): could not cross the blood-brain barrier
AUCInf Ratio (Brain/Plasma) ([7]; 10 mg/kg intraperitoneal injection, Mean): 0.0227
AUCInf [7, 11]: 16.5 ng·h/g
AUClast [7, 11]: 16.3 ng·h/g
Tmax [7, 11]: 4.8 min
T½ [7, 11]: 4.48 min
AUCInf [7, 12]: 725 ng·h/mL
AUClast [7, 12]: 725 ng·h/mL
Cmax [7, 12]: 4023 ng/mL
T½ [7, 12]: 9 min

O=[N+]([O-])c1ccc(C(OP(=O)(N2CC2)N2CC2)C(F)(F)F)cc1Oc1ccc(-c2ccc(F)cc2)c(F)c1 (single isomer, unassigned) [A-P1]
Isomer peak A-P1 ([8]; 0 month): 99.92%
Isomer peak A-P2 ([8]; 0 month): 0.08%
Isomer peak A-P1 ([8]; 5° C. ± 3° C., 1 month): 99.92%
Isomer peak A-P2 ([8]; 5° C. ± 3° C., 1 month): 0.08%
Isomer transformation ([8]; 5° C. ± 3° C., 1 month): 0.00%
Isomer peak A-P1 ([8]; 5° C. ± 3° C., 3 months): 99.92%
Isomer peak A-P2 ([8]; 5° C. ± 3° C., 3 months): 0.08%
Isomer transformation ([8]; 5° C. ± 3° C., 3 months): 0.00%
Isomer peak A-P1 [8, 13]: 99.92%
Isomer peak A-P2 [8, 13]: 0.08%
Isomer transformation [8, 13]: 0.00%
Isomer peak A-P1 [8, 14]: 99.92%
Isomer peak A-P2 [8, 14]: 0.08%
Isomer transformation [8, 14]: 0.00%
Isomer peak A-P1 [8, 15]: 99.91%
Isomer peak A-P2 [8, 15]: 0.09%
Isomer transformation [8, 15]: 0.01%
colour and chirality after storage ([8]; −20° C., 5° C., 25° C./60% RH 3 months, 40° C./75% RH 1 month): essentially no change
Isomer peak A-P1 ([8]; −20 ± 5° C., 3 months): 99.92%
Isomer peak A-P2 ([8]; −20 ± 5° C., 3 months): 0.08%
Isomer transformation ([8]; −20 ± 5° C., 3 months): 0.00%
